Test results reported in patent US8450479B2, “3-substituted-4-oxo-3,4-dihydro-imidazo[5,1-d][1,2,3,5-tetrazine-8-carboxylic acid amides and their use” (Pharminox Limited, priority 2007, dated 2013).
Where “and” joins values, the source holds several entries; their conditions need not be identical. Equal values may be shown once. Read-outs that look alike come from different tables or passages of the source.

What was measured:
Assay in all cases: MTT assay for 7-day toxicity assay
Type in all cases: cell-based
[1] = system: Colon HCT116 (MMR mutated); settings: Homo sapiens, HCT-116, 168 h, Colon HCT116 (MMR mutated); 7-day MTT; single determinations; read-out: GI50
Procedure: (§1) The cell culture techniques were carried out in a Class II microbiological safety cabinet which was swabbed with 70% IMS in distilled water before each use. Glioma cells were routinely cultured in Costar tissue culture flasks in RPMI 1640 liquid medium (containing 0.3 g/L L-glutamine and 2 g/L sodium bicarbonate) supplemented with 10% heat inactivated FBS (55-59° C.) for 1 hour to denature complement proteins which would otherwise evoke a cellular immune response resulting in cell lysis, 1% non-essential amino acids, 50 μg/mL gentamicin and 400 μg/mL G418 (vector selected reagent). Colorectal and melanoma cells were maintained in RPMI 1640 supplemented with 10% FBS. MRC-5 cells were cultured in EMEM. Cells were grown in a humidified incubator containing 5% CO2 at 37° C. Cells were sub-cultured when growth exceeded approximately 80% confluence, normally twice weekly. The medium was aspirated from the flask and approximately 0.8 mL trypsin-EDTA 1× solution added. The cells were re-incubated at 37° C. until they visibly detached from the flask. The cell suspension was then re-suspended in 5 mL medium and 0.5-1 mL of the cell suspension was transferred to a new flask (25 cm^2) with 7 mL culture medium. The cells were further incubated at 37° C. incubator. Cells were disposed after passage nearly 30 times in order to minimize phenotypic drift. New batches of cells were taken from liquid nitrogen storage by thawing rapidly (37° C. water bath) and re-suspension in a 25 cm^2 flask with 10 mL of culture medium. Two passages were allowed to resume normal growth. For long-term maintenance, viable cells at 60-80% confluence were detached by minimum amount of trypsin/EDTA and re-suspended in sterile filtered freezing medium (95% FBS, 5% DMSO), transferred to sterile cryogenic vials, and frozen overnight at −20° C. followed by −80° C. for 1-2 days and stored in liquid nitrogen for long term storage.
(§2) Most test compounds, including temozolomide, were prepared as stock solution (100 mM) in DMSO and stored at −20° C. for not more than 6 months.
(§3) This assay was first described in Mosmann, T., 1983, “Rapid colorimetric assay for cellular growth and survival: Application to proliferation and cytotoxicity assays”, Journal of Immunological Methods, Vol. 65, Nos. 1-2, pp. 55-63.
(§4) Glioma cell lines, SNB19 and U373, both MGMT transfected (i.e., SNB19M and U373M) and vector controls (i.e., SNB19V and U373V); colorectal carcinoma cell lines, HCT116, HT29, and DLD1; melanoma cell line, SKMEL-28; breast cell line, MCF-7; and normal human fetal lung fibroblast cell line, MRC-5; were harvested at 60-80% confluence—during the logarithmic phase of growth.
(§5) Following harvesting, cells in suspension were gently syringed through a 23 gauge needle to obtain a near-single cell suspension. The desired cell seeding densities were used and added into 96-well plates in 180 μL culture medium if only one test compound was to be added, or 160 μL if two test compounds were to be added in combination, which were allowed to attach at 37° C. (5% CO2) overnight. For the 7 day assay, the cell seeding density for different cell lines was as follows: SNB19V, SNB19M: 650 cells/well; U373V, U373M: 650 cells/well; SNB19VR, U373VR: 650 cells/well; HCT116, DLD-1, SKMEL-28, MRC-5, MCF-7: 400 cells/well.
(§6) The two peripheral lanes were used as blank wells (cell free) and filled with 200 μL of medium in order to minimise medium evaporation from the plate. A separate time zero (T0) plate was set up alongside other plates. Serial dilutions in tissue culture medium of a 100 mM stock of test compound in DMSO were prepared immediately before each assay to ten times the final concentrations required, and then 20 μL was added to each well (200 μL total media per well) to achieve final concentrations of 0.5 μM, 1 μM, 5 μM, 10 μM, 50 μM, 100 μM, 500 μM, and 1000 μM. A minimum of four wells received the same test compound concentration. […]

[2] = system: Colon HT29 (MMR proficient); settings: Homo sapiens, HT-29, 168 h, Colon HT29 (MMR proficient); 7-day MTT; single determinations; read-out: GI50
Procedure: as §1, §2, §3, §4, §5, §6

[3] = system: Melanoma SKMEL-28 (MMR proficient); settings: Homo sapiens, SK-MEL-28, 168 h, Melanoma SKMEL-28 (MMR proficient); 7-day MTT; single determinations; read-out: GI50
Procedure: as §1, §2, §3, §4, §5, §6

Glioma SNB19M (MGMT+) = settings: Glioma SNB19M (MGMT+)
Procedure: as §1, with “Glioma cells were routinely cultured in Costar tissue culture flasks in RPMI 1640 liquid medium (containing 0.3 g/L L-glutamine and 2 g/L sodium bicarbonate) supplemented with 10% heat inactivated FBS (55-59° C.) for 1 hour to denature complement proteins which would otherwise evoke a cellular immune response resulting in cell lysis, 1% non-essential amino acids, 50 μg/mL gentamicin and 400 μg/mL G418 (vector selected reagent). Colorectal and melanoma cells were maintained in RPMI 1640 supplemented with 10% FBS.” left out
as §2, §4, §5
(§7) The two peripheral lanes were used as blank wells (cell free) and filled with 200 μL of medium in order to minimise medium evaporation from the plate. A separate time zero (T0) plate was set up alongside other plates. Serial dilutions in tissue culture medium of a 100 mM stock of test compound in DMSO were prepared immediately before each assay to ten times the final concentrations required, and then 20 μL was added to each well (200 μL total media per well) to achieve final concentrations of 0.5 μM, 1 μM, 5 μM, 10 μM, 50 μM, 100 μM, 500 μM, and 1000 μM. A minimum of four wells received the same test compound concentration. To control wells, including those in the T0 plate, 20 μL of medium was added. […] A separate plate treated in the same way, but free of test compound, was used as a measure of cell viability at the time of drug addition (day 0).
(§8) After incubation at 37° C., 5% CO2 for 7 days (or immediately for the day 0 plate), cell viability was quantified using the MTT assay. 50 μL of sterile filtered MIT (3-(4,5-dimethylthiazol-2-yl)-2,5-diphenyltetrazolium bromide) (2 mg/mL in phosphate buffered saline) were added to each well (final concentration 0.4 mg/mL) and the plates were re-incubated for 4 hours to allow metabolic conversion of MTT by dehydrogenases in viable cells to insoluble formazan crystals.
(§9) The intensity of absorbance is directly proportional to cell viability.

Glioma SNB19V (MGMT−) = settings: Glioma SNB19V (MGMT−)
Procedure: as §1, with “Glioma cells were routinely cultured in Costar tissue culture flasks in RPMI 1640 liquid medium (containing 0.3 g/L L-glutamine and 2 g/L sodium bicarbonate) supplemented with 10% heat inactivated FBS (55-59° C.) for 1 hour to denature complement proteins which would otherwise evoke a cellular immune response resulting in cell lysis, 1% non-essential amino acids, 50 μg/mL gentamicin and 400 μg/mL G418 (vector selected reagent). Colorectal and melanoma cells were maintained in RPMI 1640 supplemented with 10% FBS.” left out
as §2, §4, §5, §7, §8, §9

Glioma U373M (MGMT+) = settings: Glioma U373M (MGMT+)
Procedure: as §1, with “Glioma cells were routinely cultured in Costar tissue culture flasks in RPMI 1640 liquid medium (containing 0.3 g/L L-glutamine and 2 g/L sodium bicarbonate) supplemented with 10% heat inactivated FBS (55-59° C.) for 1 hour to denature complement proteins which would otherwise evoke a cellular immune response resulting in cell lysis, 1% non-essential amino acids, 50 μg/mL gentamicin and 400 μg/mL G418 (vector selected reagent). Colorectal and melanoma cells were maintained in RPMI 1640 supplemented with 10% FBS.” left out
as §2, §4, §5, §7, §8, §9

Glioma U373V (MGMT low) = settings: Glioma U373V (MGMT low)
Procedure: as §1, with “Glioma cells were routinely cultured in Costar tissue culture flasks in RPMI 1640 liquid medium (containing 0.3 g/L L-glutamine and 2 g/L sodium bicarbonate) supplemented with 10% heat inactivated FBS (55-59° C.) for 1 hour to denature complement proteins which would otherwise evoke a cellular immune response resulting in cell lysis, 1% non-essential amino acids, 50 μg/mL gentamicin and 400 μg/mL G418 (vector selected reagent). Colorectal and melanoma cells were maintained in RPMI 1640 supplemented with 10% FBS.” left out
as §2, §4, §5, §7, §8, §9

[4] = 168 h, 7-day MTT, single determinations, read-out: GI50
[5] = 7-day MTT, single determinations, read-out: GI50

Structure (SMILES) | GI50 (Glioma SNB19M (MGMT+); [4]) [µM] | GI50 (Glioma SNB19M (MGMT+); [5]) [µM] | GI50 (Glioma SNB19V (MGMT−); [4]) [µM] | GI50 (Glioma SNB19V (MGMT−); [5]) [µM] | GI50 (Glioma U373M (MGMT+); [4]) [µM] | GI50 (Glioma U373M (MGMT+); [5]) [µM] | GI50 (Glioma U373V (MGMT low); [4]) [µM] | GI50 (Glioma U373V (MGMT low); [5]) [µM] | also measured
COc1cc(Cn2nnc3c(C(N)=O)ncn3c2=O)cc(OC)c1OC [AA-002, 4-Oxo-3-(3,4,5-trimethoxybenzyl)-3,4-dihydroimidazo[5,1-d][1,2,3,5]tetrazine-8-carboxamide] | – | – | – | – | – | – | – | – | GI50 [1]: 393 µM; GI50 [2]: 128 µM; GI50 [3]: 293 µM
NC(=O)c1ncn2c(=O)n(CC3CCCC3)nnc12 [GG-002, 3-(Cyclopentyl)methyl-8-carbamoylimidazotetrazin-4-one] | 796 | 602 | 888 | 751 | 642 | 728 | 790 | > 1000 | –
CNC(=O)Cn1nnc2c(C(N)=O)ncn2c1=O [JJ-002, N-Methyl (8-Carbamoyl-oxoimidazo[5,1-d][1,2,3,5]tetrazin-3(4H)-yl)ethanamide] | 258 | 235 | 73.5 | 58.1 | 306 | 221 | 234 | 287 | –
CN(C)C(=O)Cn1nnc2c(C(N)=O)ncn2c1=O [JJ-003, N,N-Dimethyl (8-Carbamoyl-oxoimidazo[5,1-d][1,2,3,5]tetrazin-3(4H)-yl)ethanamide] | 78.6 | 68.1 | 73.6 | 61.8 | 98.6 | 86.4 | 92.4 | 77.8 | –
NC(=O)c1ncn2c(=O)n(CC(=O)N3CCOCC3)nnc12 [JJ-005, N-(8-Carbamoyl-oxoimidazo[5,1-d][1,2,3,5]tetrazin-3(4H)-yl)ethanoyl morpholine] | 119 | 84.9 | 70.3 | 52.4 | 90.4 | 173 | 195 | 291 | –
CSCCn1nnc2c(C(N)=O)ncn2c1=O [KK-002, 3-(2-Methylsulfanyl-ethyl)-4-oxo-3,4-dihydro-imidazo[5,1-d][1,2,3,5]tetrazine-8-carboxylic acid amide] | 304 | 259 | 288 | 321 | 229 | 286 | 152 | 300 | –
NC(=O)c1ncn2c(=O)n(CCC(=O)O)nnc12 [LL-001, 3-(8-Carbamoyl-oxoimidazo[5,1-d][1,2,3,5]tetrazin-3(4H)-yl)propanoic acid] | 397 | 232 | 356 | 355 | 236 | 281 | 234 | 248 | –
CC(=O)OCn1nnc2c(C(N)=O)ncn2c1=O [LL-005] | 46 | 34.7 | 56.6 | 40.1 | 45.6 | 33.3 | 15.7 | 8 | –
CC(C)(C)[Si](C)(C)OCCn1nnc2c(C(N)=O)ncn2c1=O [NN-001, 3-(2-(tert-Butyldimethylsilyloxy)ethyl)-4-oxo-3,4-dihydroimidazo[5,1-d][1,2,3,5]tetrazine-8-carboxamide] | – | – | – | – | – | – | – | – | GI50 (Glioma SNB19M (MGMT+)): 182 µM and 263 µM; GI50 (Glioma SNB19V (MGMT−)): 128 µM and 97 µM; GI50 (Glioma U373M (MGMT+)): 98.2 µM and 68.3 µM; GI50 (Glioma U373V (MGMT low)): 172 µM and 229 µM
NC(=O)c1ncn2c(=O)n(CCO)nnc12 [NN-002, 3-(2-Hydroxyethyl)-4-oxo-3,4-dihydroimidazo[5,1-d][1,2,3,5]tetrazine-8-carboxamide] | – | – | – | – | – | – | – | – | GI50 (Glioma SNB19M (MGMT+)): 396 µM and 437 µM; GI50 (Glioma SNB19V (MGMT−)): 200 µM and 210 µM; GI50 (Glioma U373M (MGMT+)): 248 µM and 398 µM; GI50 (Glioma U373V (MGMT low)): 209 µM and 368 µM
CC(C)n1nnc2c(C(N)=O)ncn2c1=O [PP-001, 3-Isopropyl-8-carbamoylimidazotetrazin-4-one] | – | – | – | – | – | – | – | – | GI50 (Glioma SNB19M (MGMT+); read-out: GI50): > 1000 µM and 753 µM; GI50 (Glioma SNB19V (MGMT−); read-out: GI50): > 1000 µM; GI50 (Glioma U373M (MGMT+); read-out: GI50): 427 µM and 657 µM; GI50 (Glioma U373V (MGMT low); read-out: GI50): 387 µM and 580 µM
